Source: patent publication US12031173B2, “Methods of producing polyol lipids” (THE REGENTS OF THE UNIVERSITY OF CALIFORNIA, priority 2016, dated 2024)

Assay: Surface tension of aqueous PEFA solutions, Wilhelmy plate method
Type: physicochemical
Conditions: aqueous solution
Procedure: Surface Tension: Surface tensions were measured, using Wilhelmy plate method (Digital Tensiometer K10ST, KRÜSS) for different concentrations of PEFA in aqueous solution. The stabilization time was from 30 minutes in higher concentration to as long as 2 hours in lower concentration (below 2.5 mg/L). The final data was recorded when the measured surface tension became stable.

CC(=O)OC[C@H]1O[C@H]2O[C@@H](C)CCCCCC/C=C\CCCCCCCC(=O)O[C@H]3[C@H](O)[C@@H](O)[C@H](O[C@@H]2[C@@H](O)[C@@H]1O)O[C@@H]3COC(C)=O [Sophorolipid, 1′,4″-Sophorolactone 6′,6″-diacetate]
Average area occupied by each molecule: 54.7 Å^2/molecule
Surface excess concentration: 2.93 × 10^−6 mol/m^2
Critical Micelle Concentration (Wilhelmy plate): 15.2 mg/L
Minimum surface tension (Wilhelmy plate): 36.8 mN/m
Slope of linear part for surface tension line (Wilhelmy plate): −11.14 mN/m
